Results published in patent US6995143B2, “Macrolides with antibacterial activity” (Basilea Pharmaceutica AG, priority 2002, dated 2006).
In brackets after ≈: the same amount, converted by molar mass.

Key:
Type in all cases: cell-based
[1] = tested on: Streptococcus pneumoniae ¼; test: MIC, standard microdilution technique
Summary of the method: (§1)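 Antibacterial activity was determined by broth microdilution following the NCCLS approved standard M7-A5 (5th edition, 2000) for dilution susceptibility testing of aerobically growing bacteria.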

[2] = tested on: Staphylococcus aureus 745; test: MIC, standard microdilution technique
Summary of the method: as §1

[3] = tested on: Staphylococcus aureus ATCC 29213; test: MIC, standard microdilution technique
Summary of the method: as §1

[4] = tested on: Staphylococcus aureus 1086; test: MIC, standard microdilution technique
Summary of the method: as §1

[5] = tested on: Escherichia coli ATCC 25922; test: MIC, standard microdilution technique
Summary of the method: as §1

[6] = tested on: Streptococcus pneumoniae 12288; test: MIC, standard microdilution technique
Summary of the method: as §1

[7] = tested on: Streptococcus pneumoniae SL199T; test: MIC, standard microdilution technique
Summary of the method: as §1

[8] = tested on: Streptococcus pneumoniae l/l; test: MIC, standard microdilution technique
Summary of the method: as §1

[9] = tested on: Haemophilus influenzae 12214; test: MIC, standard agar dilution method using HTM medium
Summary of the method: (§2)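 MICs were read following the NCCLS approved standard (M7-A5) for dilution susceptibility testing of aerobically growing bacteria. Compounds were tested against Haemophilus influenzae.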

[10] = tested on: Haemophilus influenzae B1501; test: as above
Summary of the method: as §2

[11] = tested on: Haemophilus influenzae QK12/87; test: as above
Summary of the method: as §2

[12] = tested on: Haemophilus influenzae QK50; test: as above
Summary of the method: as §2

| Compound | minimum inhibitory concentration (MIC), Strain F [1] | minimum inhibitory concentration (MIC), Strain C [2] [µg/mL] | minimum inhibitory concentration (MIC), Strain A [3] | minimum inhibitory concentration (MIC), Strain B [4] | minimum inhibitory concentration (MIC), Strain D [5] [µg/mL] | minimum inhibitory concentration (MIC), Strain H [6] [µg/mL] | minimum inhibitory concentration (MIC), Strain G [7] | minimum inhibitory concentration (MIC), Strain E [8] | minimum inhibitory concentration (MIC), Strain K [9] [µg/mL] | minimum inhibitory concentration (MIC), Strain M [10] [µg/mL] | minimum inhibitory concentration (MIC), Strain I [11] [µg/mL] | minimum inhibitory concentration (MIC), Strain L [12] [µg/mL] |
| --- | --- | --- | --- | --- | --- | --- | --- | --- | --- | --- | --- | --- |
| CC[C@H]1OC(=O)[C@H](C)C(=O)[C@H](C)[C@@H](O[C@@H]2O[C@H](C)C[C@H](N(C)C)[C@H]2O)[C@](C)(OC)C[C@@H](C)C(=O)[C@H](C)[C@H]2[C@@H](SCCNc3ncnc4[nH]cnc34)C(=O)O[C@@]21C [Example 51] | 0.125 µg/mL (≈ 0.155 µM) | >32 | 1 µg/mL (≈ 1.24 µM) | 1 µg/mL (≈ 1.24 µM) | 32 (≈ 39.8 µM) | 8 (≈ 9.94 µM) | 0.5 µg/mL (≈ 0.621 µM) | <=0.06 μg/ml | 4 (≈ 4.97 µM) | 2 (≈ 2.48 µM) | 1 (≈ 1.24 µM) | 1 (≈ 1.24 µM) |
| CC[C@H]1OC(=O)[C@H](C)C(=O)[C@H](C)[C@@H](O[C@@H]2O[C@H](C)C[C@H](N(C)C)[C@H]2O)[C@](C)(OC)C[C@@H](C)C(=O)[C@H](C)[C@H]2[C@@H](SCCNc3nc(C)nc4ccc(Br)cc34)C(=O)O[C@@]21C [Example 52] | 0.125 µg/mL (≈ 0.138 µM) | >32 | 0.125 µg/mL (≈ 0.138 µM) | <=0.06 μg/ml | >32 | 8 (≈ 8.81 µM) | 4 µg/mL (≈ 4.41 µM) | <=0.06 μg/ml | 16 (≈ 17.6 µM) | 8 (≈ 8.81 µM) | 8 (≈ 8.81 µM) | 8 (≈ 8.81 µM) |
| CC[C@H]1OC(=O)[C@H](C)C(=O)[C@H](C)[C@@H](O[C@@H]2O[C@H](C)C[C@H](N(C)C)[C@H]2O)[C@](C)(OC)C[C@@H](C)C(=O)[C@H](C)[C@H]2[C@@H](SCC(=O)c3csc4ccccc34)C(=O)O[C@@]21C [Example 54] | 32 µg/mL (≈ 39.1 µM) | >32 | 1 µg/mL (≈ 1.22 µM) | 0.5 µg/mL (≈ 0.611 µM) | >32 | >32 | >32 µg/mL | <=0.06 μg/ml | 16 (≈ 19.6 µM) | 8 (≈ 9.78 µM) | 16 (≈ 19.6 µM) | 32 (≈ 39.1 µM) |
| CC[C@H]1OC(=O)[C@H](C)C(=O)[C@H](C)[C@@H](O[C@@H]2O[C@H](C)C[C@H](N(C)C)[C@H]2O)[C@](C)(OC)C[C@@H](C)C(=O)[C@H](C)[C@H]2[C@@H](SCC(=O)Nc3ccc(C)c(C)c3)C(=O)O[C@@]21C [Example 55] | <=0.06 μg/ml | >32 | 0.25 µg/mL (≈ 0.311 µM) | 0.125 µg/mL (≈ 0.155 µM) | >32 | 2 (≈ 2.48 µM) | 0.25 µg/mL (≈ 0.311 µM) | <=0.06 μg/ml | 8 (≈ 9.94 µM) | 8 (≈ 9.94 µM) | 8 (≈ 9.94 µM) | 16 (≈ 19.9 µM) |
| CC[C@H]1OC(=O)[C@@](C)(F)C(=O)[C@H](C)[C@@H](O[C@@H]2O[C@H](C)C[C@H](N(C)C)[C@H]2O)[C@](C)(OC)C[C@@H](C)C(=O)[C@H](C)[C@H]2[C@@H](S(=O)(=O)CCCn3cnc4c(N)ncnc43)C(=O)O[C@@]21C [Example 58] | <=0.06 μg/ml | >32 | 0.5 µg/mL (≈ 0.575 µM) | 0.5 µg/mL (≈ 0.575 µM) | >32 | 8 (≈ 9.21 µM) | 0.5 µg/mL (≈ 0.575 µM) | <=0.06 μg/ml | 4 (≈ 4.6 µM) | 4 (≈ 4.6 µM) | 4 (≈ 4.6 µM) | 4 (≈ 4.6 µM) |
| (3R or S, 3aR, 4R or S, 6R, 8R, 9R, 10R, 12S, 15R, 15aS) -3-[[3-[6-Amino-9H-purine-9-yl]propyl]thio]-15-ethyl-12-fluorooctahydro-8-methoxy-4,6,8,10,12,15a-hexamethyl-3-9-[[3,4,6-trideoxy-3-(dimethylamino)-β-D-xylo-hexopyranosyl]oxy]-2H-furo [2,3-c] oxacyclotetradecin-2,5,11,13 (3H,6H,12H)-tetrone [Example 13] | <=0.06 μg/ml | >32 | <=0.06 μg/ml | <=0.06 μg/ml | 32 | 0.25 | <=0.06 μg/ml | <=0.06 μg/ml | 2 | 2 | 2 | 2 |
| (3R or S, 3aS, 4R or S, 6R, 8R, 9R, 10R, 12R, 15R, 15aS) -15-Ethylhexadecahydro-4,6,8,10,12,15a-hexamethyl-2,5,11,13-tetraoxo-8-[[(2E)-3-(3-quinolyl)-2-propen-1-yl]oxy]-9-[[3,4,6-trideoxy-3-(dimethylamino)-β-D-xylo-hexopyranosyl]oxy]-2H-furo [2,3-c] oxacyclotetradecin-3-carbonitrile [Example 15] | 0.25 µg/mL | 32 | <=0.06 μg/ml | <=0.06 μg/ml | >32 | 16 | 2 µg/mL | <=0.06 μg/ml | 4 | 2 | 4 | 2 |
